# Structures can show the parent of a compound that is named as a salt.
# Tested on: Acinetobacter baumannii ATCC17978
# Experiment: Antimicrobial susceptibility testing: 90% growth inhibitory concentration (IC90) determination, Iso-Sensitest broth
# Format: cell-based
# Conditions: 90% growth inhibitory concentration, Acinetobacter baumannii ATCC17978, Iso-Sensitest broth, OD 600 nm over 16 h; read-out: ATCC17978 IC90
# Outline: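 A. baumannii ATCC17978 grown in Iso-Sensitest broth across 10 compound concentrations at 35±2 °C.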
row,Compound,IC90
1,"Cc1cc(Nc2nccn3c(-c4ccc(OC(F)F)cc4)cnc23)ccc1C(=O)N1CCN(C(=O)NC2CNC2)CC1 [Example 169, N-(azetidin-3-yl)-4-[4-[[3-[4-(difluoromethoxy)phenyl]imidazo[1,2-a]pyrazin-8-yl]amino]-2-methyl-benzoyl]piperazine-1-carboxamide trifluoroacetate]",470 nM
2,"COc1ccc(-c2cnc3c(Nc4ccc(C(=O)N5CCCN(C)CC5)c(C)c4)nccn23)cc1 [Example 383, [4-[[3-(4-methoxyphenyl)imidazo[1,2-a]pyrazin-8-yl]amino]-2-methylphenyl]-(4-methyl-1,4-diazepan-1-yl)methanone]",4300 nM
3,"COc1ccc(-c2cnc3c(Nc4ccc(C(=O)N5CCC(C(=O)NCCCN(C)C)CC5)c(C)c4)nccn23)cc1F [Example 46, N-[3-(dimethylamino)propyl]-1-[4-[[3-(3-fluoro-4-methoxyphenyl)imidazo[1,2-a]pyrazin-8-yl]amino]-2-methylbenzoyl]piperidine-4-carboxamide]",200 nM
4,"Cc1cc(Nc2nccn3c(-c4ccc(OC(F)F)cc4)cnc23)ccc1C(=O)N1CCN(C(=O)N2CCOC(CN(C)C)C2)CC1 (stereo not shown) [Example 132, [4-[[3-[4-(difluoromethoxy)phenyl]imidazo[1,2-a]pyrazin-8-yl]amino]-2-methyl-phenyl]-[4-[2-[(dimethylamino)methyl]morpholine-4-carbonyl]piperazin-1-yl]methanone]",300 nM
5,"Cc1cc(Nc2nccn3c(-c4ccc(O[C@@H](C)C#N)c(F)c4F)cnc23)ccc1C(=O)N1CCN(CCN(C)C)CC1 [Example 240, ((2S)-2-[4-[8-[4-[4-[2-(dimethylamino)ethyl]piperazine-1-carbonyl]-3-methyl-anilino]imidazo[1,2-a]pyrazin-3-yl]-2,3-difluoro-phenoxy]propanenitrile formate]",110 nM
6,"COc1ccc(-c2cnc3c(Nc4ccc(C(=O)N5CCOC(CN(C)C)C5)c(C)c4)nccn23)cc1F (stereo not shown) [Example 23, [2-[(dimethylamino)methyl]morpholin-4-yl]-[4-[[3-(3-fluoro-4-methoxy-phenyl)imidazo[1,2-a]pyrazin-8-yl]amino]-2-methyl-phenyl]methanone;2,2,2-trifluoroacetic acid]",1100 nM
7,"COc1ccc(-c2cnc3c(Nc4ccc(C(=O)N5CCC(CN)CC5)c(C)c4)nccn23)c(F)c1F [Example 28, (4-(aminomethyl)piperidin-1-yl)(4-((3-(2,3-difluoro-4-methoxyphenyl)imidazo[1,2-a]pyrazin-8-yl)amino)-2-methylphenyl)methanone]",170 nM
8,"Cc1cc(Nc2nccn3c(-c4ccc(OCC#N)c(F)c4F)cnc23)ccc1C(=O)N1CCC(C(=O)N2CCNC(CO)C2)CC1 (stereo not shown) [Example 95, 2-[2,3-difluoro-4-[8-[4-[4-[3-(hydroxymethyl)piperazine-1-carbonyl]piperidine-1-carbonyl]-3-methyl-anilino]imidazo[1,2-a]pyrazin-3-yl]phenoxy]acetonitrile;2,2,2-trifluoroacetic acid]",89 nM
9,"COc1ccc(-c2cnc3c(Nc4ccc(C(=O)N5CCC(CN)CC5)c(C)c4)nccn23)c(Cl)c1 [Example 109, (4-(aminomethyl)piperidin-1-yl)(4-((3-(2-chloro-4-methoxyphenyl)imidazo[1,2-a]pyrazin-8-yl)amino)-2-methylphenyl)methanone]",510 nM
10,"COc1ccc(-c2cnc3c(Nc4ccc(C(=O)N5CCNCC5)c(C)c4)nccn23)cc1F [Example 130, [4-[[3-(3-fluoro-4-methoxy-phenyl)imidazo[1,2-a]pyrazin-8-yl]amino]-2-methyl-phenyl]-piperazin-1-yl-methanone hydrochloride]",430 nM
11,"Cc1cc(Nc2nccn3c(-c4cc(F)c(OCC#N)cc4Cl)cnc23)ccc1C(=O)N1CCC(C(=O)N2CCNC(CO)C2)CC1 (stereo not shown) [Example 32, 2-[5-chloro-2-fluoro-4-[8-[4-[4-[3-(hydroxymethyl)piperazine-1-carbonyl]piperidine-1-carbonyl]-3-methyl-anilino]imidazo[1,2-a]pyrazin-3-yl]phenoxy]acetonitrile;2,2,2-trifluoroacetic acid]",210 nM

# Same assay, conditions: Acinetobacter baumannii, ATCC17978, 16 h, read-out: ATCC17978 IC90, 90% growth inhibitory concentration, Acinetobacter baumannii ATCC17978, Iso-Sensitest broth, OD 600 nm over 16 h
row,Compound,IC90
1,"COc1ccc(-c2cnc3c(Nc4ccc(C(=O)N5CCC(C(=O)NC6(C(N)=O)CNC6)CC5)c(C)c4)nccn23)cc1F [Example 407, N-(3-carbamoylazetidin-3-yl)-1-[4-[[3-(3-fluoro-4-methoxyphenyl)imidazo[1,2-a]pyrazin-8-yl]amino]-2-methylbenzoyl]piperidine-4-carboxamide; 2,2,2-trifluoroacetic acid]",540 nM
2,"Cc1cc(Nc2nccn3c(-c4ccc(OC(F)F)cc4)cnc23)ccc1C(=O)N1CCN(C(=O)C(C)(C)N)CC1 [Example 339, 2-amino-1-[4-[4-[[3-[4-(difluoromethoxy)phenyl]imi-dazo[1,2-a]pyrazin-8-yl]amino]-2-methylbenzoyl]piperazin-1-yl]-2-methylpropan-1-one; hydrochloride]",500 nM
3,"Cc1cc(Nc2nccn3c(-c4ccc(OC(F)F)cc4)cnc23)ccc1C(=O)N1CCC(C(=O)N2C[C@H](O)[C@@H](O)[C@@H](O)[C@H]2CO)CC1 [Example 270, [4-[[3-[4-(difluoromethoxy)phenyl]imi-dazo[1,2-a]pyrazin-8-yl]amino]-2-methylphenyl]-[4-[(2R,3S,4R,5S)-3,4,5-trihydroxy-2-(hydroxymethyl)piperidine-1-carbonyl]piperidin-1-yl]methanone]",2000 nM
4,"CCc1cc(Nc2nccn3c(-c4ccc(OC)c(F)c4)cnc23)ccc1C(=O)N1CCC(CN)CC1 [Example 386, [4-(aminomethyl)piperidin-1-yl]-[2-ethyl-4-[[3-(3-fluoro-4-methoxyphenyl)imidazo[1,2-a]pyrazin-8-yl]amino]phenyl]methanone; formic acid]",180 nM
5,"COc1ccc(-c2cnc3c(Nc4ccc(C(=O)N5CCN(C(=O)[C@@H]6C[C@@H](OC(=O)[C@@H](N)C(C)C)CN6)CC5)c(C)c4)nccn23)c(F)c1F [Example 552, [(3R,5S)-5-[4-[4-[[3-(2,3-difluoro-4-methoxy-phenyl)imidazo[1,2-a]pyrazin-8-yl]amino]-2-methyl-benzoyl]piperazine-1-carbonyl]pyrrolidin-3-yl] (2S)-2-amino-3-methyl-butanoate]",186 nM
6,"Cc1cc(Nc2nccn3c(-c4ccc(OC(F)F)cc4)cnc23)ccc1C(=O)N1CCN(C(=O)C[C@H](C)N)CC1 [Example 327, (3S)-3-amino-1-[4-[4-[[3-[4-(difluoromethoxy)phenyl]imi-dazo[1,2-a]pyrazin-8-yl]amino]-2-methylbenzoyl]piperazin-1-yl]butan-1-one; hydrochloride]",380 nM
7,"Cc1cc(Nc2nccn3c(-c4ccc(OC(F)F)cc4)cnc23)ccc1C(=O)N1CCN(C(=O)[C@@H]2CNCCO2)CC1 [Example 341, [4-[[3-[4-(difluoromethoxy)phenyl]imi-dazo[1,2-a]pyrazin-8-yl]amino]-2-methylphenyl]-[4-[(2S)-morpholine-2-carbonyl]piperazin-1-yl]methanone; hydrochloride]",520 nM
8,"Cc1cc(Nc2nccn3c(-c4ccc(OC(F)F)cc4)cnc23)ccc1C(=O)N1CCN(C(=O)[C@@H](N)CCC(=O)O)CC1 [Example 272, (4S)-4-amino-5-[4-[4-[[3-[4-(difluoromethoxy)phenyl]imi-dazo[1,2-a]pyrazin-8-yl]amino]-2-methylbenzoyl]piperazin-1-yl]-5-oxopentanoic acid; hydrochloride]",2200 nM
